Experiments:
[1] = biological target: hNAMPT protein (Homo sapiens (Human), UniProt P43490); experiment: NAMPT enzyme assay (TR-FRET/HTRF with BodiPY ligand); assay type: binding; settings: for inhibition at 1 µM: NAMPT inhibition at compound concentration 1 μM, read-out: Percent Inhibition; for IC50: NAMPT inhibition, IC50 range class
Text: As discussed above, the invention provides compounds that are useful as inhibitors of the enzyme NAMPT. The NAMPT inhibition of a compound of the invention can be measured using a variety of methods known in the art. For example, the ability of a compound of the invention to inhibit NAMPT enzyme activity can be measured using a homogeneous time resolved fluorescence (HTRF) assay using hNAMPT protein and anti 6His-Tb in buffer treated with a compound of the invention (or control e.g., DMSO) and BodiPY ligand. The TR-FRET signal can be measured using a high throughput microplate reader (e.g., Pherastar). Excitation can be carried out at 320 nm. The percent inhibition value at a single concentration of compound of the invention can be calculated relative to a control treated sample. A concentration response curve can be generated for each compound of the invention and the curve fitted to generate an IC50 value. […] To measure the inhibition of NAMPT activity hNAMPT protein stock and anti 6His-Tb (Cisbio; Cat. No. […]TLB) is diluted to 3× final concentration with assay buffer (50 mM Tris-HCl (pH 7.5), 1 mM DTT, 100 mM NaCl, 10 mM MgCl2, 0.005% Tween 20). To this solution is added a test compound or vehicle control (DMSO) and BodiPY ligand (structure below). The plate is shaken for 1-2 min sealed and incubated for 1 h at rt in the dark. The TR-FRET signal is measured using BMG Pherastar (Lanthascreen protocol on BMG Pherastar). Excitation was carried out at 320 nm, and the ratio of emission of BodiPY (520 nm) to terbium (486 nm) was determined. Concentration response curves are generated by calculating the excitation increase in test compound-treated samples relative to DMSO-treated controls. For the assay method described above, test compound percent inhibition values at a single concentration are calculated relative to control (DMSO) treated samples. Compound concentration response curves are fitted to generate IC50 values from those curves. One skilled in the art will appreciate that these values generated either as percentage inhibition at a single concentration or IC50 values are subject to experimental variation.

[2] = system: PC3 cells; experiment: PC3 growth inhibition (Cell-titer glo, 72 hours); assay type: cell-based; settings: Homo sapiens, PC-3, 72 h, read-out: Percent Viability, PC3 cells, compound concentration 1.667 μM, 72 hours
Experimental: The invention also provides compounds that inhibit cell growth. The ability of a compound of the invention to inhibit the growth of cells can be measured using a variety of methods known in the art. For example, the ability of a compound of the invention to inhibit the growth of PC3 cells can be measured. PC3 cells can be plated and incubated overnight under CO2. For each measurement, a compound of the invention (or vehicle e.g., DMSO) can be diluted with AIM serum free medium and added to the cell plate. The cell plate can then be incubated for 72 h under CO2. Cell-titer glo solution can be added and the plates can be incubated protected from light and the amount of luminescences can be measured. Concentration response curves can be generated by calculating the luminescence increase in test compound treated samples relative to DMSO-treated controls. Percentage remaining viability values at a single concentration can be measured. Growth inhibition (GI50) or cell viability (LD50) values can be determined from thoses curves. In one embodiment, compounds of the invention have a percent viability in PC3 line @ 1.667 uM of <1%. In one embodiment, compounds of the invention have a percent viability in PC3 line @ 1.667 uM of <2%. In one embodiment, compounds of the invention have a percent viability in PC3 line @ 1.667 uM of <3%. In one embodiment, compounds of the invention have a percent viability in PC3 line @ 1.667 uM of <4%. In one embodiment, compounds of the invention have a percent viability in PC3 line @ 1.667 uM of <5%. In one embodiment, compounds of the invention have a percent viability in PC3 line @ 1.667 uM of <10%. In one embodiment, compounds of the invention have a percent viability in PC3 line @ 1.667 uM of <50%.
To measure PC3 growth inhibition, PC3 cells that were maintained in RPMI1640 growth medium (Life Technologies; Cat. No. 11875) at 37° C. under 5% CO2 are trypsinized and diluted at a density of 8×10^4 cells/ml, 25 ul per well of cells and plated in 384-well black tissue culture plate. The cells are incubated overnight at 37° C. under 5% CO2. For each measurement, a test compound or vehicle DMSO control is diluted with AIM serum free medium and added to the cell plate. The cell plate is incubated for 72 hours at 37° C. under 5% CO2. 25 μl Cell-titer glo solution (Promega; Cat. No. G8462) is added and the cell plates are incubated for 10 minutes protected from light. The luminescence is measured. Concentration response curves are generated by calculating the luminescence increase in test compound-treated samples relative to DMSO-treated controls. Percentage remaining viability values at a single concentration, growth inhibition (GI50) or cell viability (LD50) values are determined from those curves. One skilled in the art will appreciate that these values are subject to experimental variation.

Sequence of hNAMPT protein (P43490 whole entry): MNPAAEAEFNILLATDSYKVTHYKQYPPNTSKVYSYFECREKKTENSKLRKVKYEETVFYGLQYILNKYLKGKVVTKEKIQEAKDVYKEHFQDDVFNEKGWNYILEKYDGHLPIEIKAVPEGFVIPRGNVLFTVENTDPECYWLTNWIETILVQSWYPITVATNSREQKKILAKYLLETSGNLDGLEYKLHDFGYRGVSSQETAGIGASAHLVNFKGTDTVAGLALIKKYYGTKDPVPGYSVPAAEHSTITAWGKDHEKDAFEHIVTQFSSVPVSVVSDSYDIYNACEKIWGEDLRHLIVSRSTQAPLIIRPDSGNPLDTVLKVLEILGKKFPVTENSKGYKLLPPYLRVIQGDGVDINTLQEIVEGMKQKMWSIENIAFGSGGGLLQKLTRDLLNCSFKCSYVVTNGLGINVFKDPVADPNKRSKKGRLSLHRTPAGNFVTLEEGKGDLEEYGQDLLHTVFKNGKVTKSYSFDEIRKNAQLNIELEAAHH

Molecule `CCOc1cc(-c2cncc(C)c2)nc2cc(C(=O)NCCCc3nnc[nH]3)ccc12` [Compound I-127, 4-ethoxy-2-(5-methylpyridin-3-yl)-N-[3-(4H-1,2,4-triazol-3-yl)propyl]quinoline-7-carboxamide] has an inhibition at 1 µM [1] of 87%, an IC50 [1] of 50 to 100 nM and a viability at 1.667 µM [2] of 2%.

In the case of `CCOc1cc(-c2ccc(F)cc2)nc2cc(C(=O)NCC(F)(F)Cc3nnc[nH]3)ccc12` [Compound I-91, N-[2,2-difluoro-3-(4H-1,2,4-triazol-3-yl)propyl]-4-ethoxy-2-(4-fluorophenyl)quinoline-7-carboxamide], the inhibition at 1 µM [1] is reported as 80%, the IC50 [1] is reported as over 100 nM and the viability at 1.667 µM [2] is reported as 2%.

For `CCOc1cc(-c2ccnc(OC)c2)nc2cc(C(=O)NCCCc3[nH]nnc3C)ccc12` [Compound I-71, 4-ethoxy-2-(2-methoxypyridin-4-yl)-N-[3-(4-methyl-1H-1,2,3-triazol-5-yl)propyl]quinoline-7-carboxamide], the inhibition at 1 µM [1] was 97%, the IC50 [1] was 10 to 50 nM and the viability at 1.667 µM [2] was 2%.

Molecule `COCCOc1cc(-c2ccc(F)cc2)nc2cc(C(=O)NCc3ccn4ncnc4c3)ccc12` [Compound I-82, 2-(4-fluorophenyl)-4-(2-methoxyethoxy)-N-([1,2,4]triazolo[1,5-a]pyridin-7-ylmethyl)quinoline-7-carboxamide] has an inhibition at 1 µM [1] of 100%, an IC50 [1] of under 10 nM and a viability at 1.667 µM [2] of 2%.

`CCOc1cc(-c2cccnc2OC)nc2cc(C(=O)NCCCc3cnn[nH]3)ccc12` [Compound I-105, 4-ethoxy-2-(2-methoxypyridin-3-yl)-N-[3-(1H-1,2,3-triazol-5-yl)propyl]quinoline-7-carboxamide] gave an inhibition at 1 µM [1] of 100%, an IC50 [1] of 10 to 50 nM and a viability at 1.667 µM [2] of 2%.

For `CCOc1cc(-c2ccc(F)cc2)nc2cc(C(=O)NCCc3nnc(N)[nH]3)ccc12` [Compound I-142, N-[2-(5-amino-4H-1,2,4-triazol-3-yl)ethyl]-4-ethoxy-2-(4-fluorophenyl)quinoline-7-carboxamide], the inhibition at 1 µM [1] was 89%, the IC50 [1] was over 100 nM and the viability at 1.667 µM [2] was 14%.

Molecule `CCOc1cc(-c2ccc(OC)nc2)nc2cc(C(=O)NCCc3nc[nH]n3)ccc12` [Compound I-186, 4-ethoxy-2-(6-methoxypyridin-3-yl)-N-[2-(1H-1,2,4-triazol-3-yl)ethyl]quinoline-7-carboxamide] has an inhibition at 1 µM [1] of 99%, an IC50 [1] of 10 to 50 nM and a viability at 1.667 µM [2] of 4%.

Molecule `CCOc1cc(-c2ccc(F)cc2)nc2cc(C(=O)NCCc3cc(N)[nH]n3)ccc12` [Compound I-134, N-[2-(5-amino-1H-pyrazol-3-yl)ethyl]-4-ethoxy-2-(4-fluorophenyl)quinoline-7-carboxamide] has an inhibition at 1 µM [1] of 93%, an IC50 [1] of 10 to 50 nM and a viability at 1.667 µM [2] of 3%.

Work on `CC(C)Cc1nc(-c2ccc(Cl)s2)nc2cc(C(=O)NCCCc3ncc[nH]3)ccc12` [Compound I-23, 2-(5-chloro-2-thienyl)-N-[3-(1H-imidazol-2-yl)propyl]-4-isobutylquinazoline-7-carboxamide] yielded an inhibition at 1 µM [1] of over 99%, an IC50 [1] of 10 to 50 nM and a viability at 1.667 µM [2] of 1%.

`CCOc1cc(-c2ccc(F)cc2)nc2cc(C(=O)NCCCn3cccn3)ccc12` [Compound I-43, 4-ethoxy-2-(4-fluorophenyl)-N-[3-(1H-pyrazol-1-yl)propyl]quinoline-7-carboxamide] was tested, and the inhibition at 1 µM [1] was 99%, the IC50 [1] was under 10 nM and the viability at 1.667 µM [2] was 77%.

Molecule `O=C(NCCCc1nnc[nH]1)c1ccc2c(-n3ccnc3)cc(-c3ccc(F)cc3)nc2c1` [Compound I-148, 2-(4-fluorophenyl)-4-(1H-imidazol-1-yl)-N-[3-(4H-1,2,4-triazol-3-yl)propyl]quinoline-7-carboxamide] has an inhibition at 1 µM [1] of 99%, an IC50 [1] of under 10 nM and a viability at 1.667 µM [2] of 1%.

`CCOc1cc(-c2ccncc2OC)nc2cc(C(=O)NCCCc3nnc[nH]3)ccc12` [Compound I-139, 4-ethoxy-2-(3-methoxypyridin-4-yl)-N-[3-(4H-1,2,4-triazol-3-yl)propyl]quinoline-7-carboxamide] gave an inhibition at 1 µM [1] of 99%, an IC50 [1] of 10 to 50 nM and a viability at 1.667 µM [2] of 2%.

`CCOc1cc(-c2cccc(OC(F)(F)F)c2)nc2cc(C(=O)NCCCc3nnc[nH]3)ccc12` [Compound I-216, 4-ethoxy-N-[3-(4H-1,2,4-triazol-3-yl)propyl]-2-[3-(trifluoromethoxy)phenyl]quinoline-7-carboxamide] gave an inhibition at 1 µM [1] of 92%, an IC50 [1] of 50 to 100 nM and a viability at 1.667 µM [2] of 1%.

`CCOc1cc(-c2ccnc(OC)c2)nc2cc(C(=O)NCCc3c[nH]nc3C)ccc12` [Compound I-100, 4-ethoxy-2-(2-methoxypyridin-4-yl)-N-[2-(3-methyl-1H-pyrazol-4-yl)ethyl]quinoline-7-carboxamide] gave an inhibition at 1 µM [1] of 92%, an IC50 [1] of 50 to 100 nM and a viability at 1.667 µM [2] of 2%.

`CCOc1cc(-c2ccnc(C)c2)nc2cc(C(=O)NCCCc3cnn[nH]3)ccc12` [Compound I-117, 4-ethoxy-2-(2-methylpyridin-4-yl)-N-[3-(1H-1,2,3-triazol-5-yl)propyl]quinoline-7-carboxamide] gave an inhibition at 1 µM [1] of 100%, an IC50 [1] of under 10 nM and a viability at 1.667 µM [2] of 2%.

Work on `CCOc1cc(-c2ccc(C)nc2OC)nc2cc(C(=O)NCCCc3[nH]nnc3C)ccc12` [Compound I-94, 4-ethoxy-2-(2-methoxy-6-methylpyridin-3-yl)-N-[3-(4-methyl-1H-1,2,3-triazol-5-yl)propyl]quinoline-7-carboxamide] yielded an inhibition at 1 µM [1] of 97%, an IC50 [1] of 10 to 50 nM and a viability at 1.667 µM [2] of 1%.

Work on `CCOc1cc(-c2ccc(F)c(Cl)c2)nc2cc(C(=O)NCCCc3ncc[nH]3)ccc12` [Compound I-56, 2-(3-chloro-4-fluorophenyl)-4-ethoxy-N-[3-(1H-imidazol-2-yl)propyl]quinoline-7-carboxamide] yielded an inhibition at 1 µM [1] of 99%, an IC50 [1] of under 10 nM and a viability at 1.667 µM [2] of 1%.

Molecule `CCOc1cc(-c2cnc(OC)cc2C)nc2cc(C(=O)NCCCc3nnc[nH]3)ccc12` [Compound I-145, 4-ethoxy-2-(6-methoxy-4-methyl-3-pyridyl)-N-[3-(4H-1,2,4-triazol-3-yl)propyl]quinoline-7-carboxamide] has an inhibition at 1 µM [1] of 86%, an IC50 [1] of over 100 nM and a viability at 1.667 µM [2] of 2%.

In the case of `CCOc1cc(-c2ccc(OC)nc2)nc2cc(C(=O)NCCc3cn[nH]c3C)ccc12` [Compound I-153, 4-ethoxy-2-(6-methoxypyridin-3-yl)-N-[2-(5-methyl-1H-pyrazol-4-yl)ethyl]quinoline-7-carboxamide], the inhibition at 1 µM [1] is reported as 98%, the IC50 [1] is reported as 10 to 50 nM and the viability at 1.667 µM [2] is reported as 2%.

With `CCOc1cc(-c2ccc(F)cc2)nc2cc(C(=O)NCCCc3cc[nH]n3)ccc12` [Compound I-204, 4-ethoxy-2-(4-fluorophenyl)-N-[3-(1H-pyrazol-3-yl)propyl]quinoline-7-carboxamide] the inhibition at 1 µM [1] was 100%, the IC50 [1] was under 10 nM and the viability at 1.667 µM [2] was 2%.
